Results taken from patent US9517215B2, “Dermal matrix and production method thereof having synergistic effects comprising microparticles which provides tissue repair” (T.C. EGE UNIVERSITESI, priority 2013, dated 2016).

System: human dermal fibroblast cells (Invitrogen C-013-5C)
Assay: Cell vitality of human dermal fibroblast cells after 24 h incubation
Type: cell-based
Procedure: The human dermal fibroblast cells, (Invitrogen C-013-5C) were cultured in humid conditions comprising 37±0.5° C. and 5% CO2 according to the instructions of the producer. […] Oxidative stress parameters such as total glutation, malondialdehyde, and superoxide dismutase and glutation peroxidase have been examined inside the cells that have been analyzed.

For Oc1ccc(C=Cc2cc(O)cc(O)c2)cc1 [Resveratrol solution, resveratrol], the “cytotoxic potential (cell vitality)” value was “not to have cytotoxic potential” and the cell proliferation effect (concentrations corresponding to 50 μM resveratrol content) was “cell proliferation increasing effects”.
